Measurements from patent US20260130850A1, “TRANSDERMAL DELIVERY FORMULATIONS AND METHODS FOR THE MANUFACTURE THEREOF” (LIFEACTIVE, INC., priority 2023, published 2026).

What was measured:
[1] = Acidic dissociation constants (pKa) of strong and weak organic acids; assay type: physicochemical; conditions: water; in H2O at ~15-20° C.; Table 2 weak organic acids; read-out: Median pKa
Source text: As used herein, the term “pKa” refers to acid dissociation constant (Ka) of a solution. […] The quantitative behavior of acids and bases in solution can be understood only if their pKa values are known. pKa describes the acidity of a particular molecule. It measures the strength of an acid by how tightly a proton is held by a Bronsted acid. The lower the value of pKa, the stronger the acid and the greater its ability to donate its protons. describe the acidity of a particular molecule Ka denotes the acid dissociation constant. It measures how completely an acid dissociates in an aqueous solution. The larger the value of Ka, the stronger the acid as acid largely dissociates into its ions and has lower pKa value.

[2] = in H2O at ~15-20° C.; Table 2 weak organic acids; cited from earlier work

Compound | pKa [1] | pKa1 [2] | pKa3 [2]
O=c1[nH]c(=O)c2[nH]c(=O)[nH]c2[nH]1 [Uric Acid] | 5.6 | 5.6 | –
Citric Acid | – | – | 6.40
